According to the supplement of paper PMC11061612:

Assays:
[1] = system: SK-HEP-1 (Hepatocellular Carcinoma); assay: combination Emax (second highest fraction inhibited in the dose matrix, 72 h); higher = more inhibition; extreme values may be limits of the assay
Outline: (§1)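 Cell lines grown in DMEM/F12 or RPMI with 10% FBS were plated in 1536-well plates and held 24 hours at 37°C, 5% CO2 before 72 hours of exposure to two-drug dose matrices, with DMSO typically at 0.2%. CellTiter-Glo 2.0 luminescence gave viability, which was converted to inhibition. Vehicle wells were set to 0 and blank wells to 1. Combination Emax is the second-highest inhibition in the matrix, and Bliss excess is the observed combination effect minus the expected EA + EB − EA·EB, where EA and EB are the single-agent effects.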

[2] = system: KYSE-220 (Esophageal Squamous Cell Carcinoma); assay: as above
Outline: as §1

[3] = system: EW-7 (Ewing's Sarcoma); assay: as above
Outline: as §1

[4] = system: MDA-MB-436 (Breast Carcinoma); assay: as above
Outline: as §1

[5] = system: NCI-H1651 (Lung Adenocarcinoma); assay: as above
Outline: as §1

[6] = system: HCC1395 (Breast Carcinoma); assay: as above
Outline: as §1

[7] = system: 769-P (Kidney Carcinoma); assay: as above
Outline: as §1

[8] = system: WM1552C (Melanoma); assay: as above
Outline: as §1

[9] = system: NCI-H2087 (Lung Adenocarcinoma); assay: as above
Outline: as §1

[10] = system: A2780 (Ovarian Carcinoma); assay: as above
Outline: as §1

[11] = system: NCI-H441 (Lung Adenocarcinoma); assay: as above
Outline: as §1

[12] = system: PEO1 (Ovarian Carcinoma); assay: as above
Outline: as §1

[13] = system: JHH-2 (Hepatocellular Carcinoma); assay: as above
Outline: as §1

[14] = system: HCC70 (Breast Carcinoma); assay: as above
Outline: as §1

[15] = system: MHH-ES-1 (Ewing's Sarcoma); assay: as above
Outline: as §1

[16] = system: CGTH-W-1 (Thyroid Gland Carcinoma); assay: as above
Outline: as §1

[17] = system: EB2 (Burkitt's Lymphoma); assay: Bliss excess, mean over the matrix (fraction); higher = more synergy
Outline: as §1

[18] = system: EW-7 (Ewing's Sarcoma); assay: as above
Outline: as §1

[19] = system: SW620 (Colorectal Carcinoma); assay: as above
Outline: as §1

[20] = system: UACC-812 (Breast Carcinoma); assay: as above
Outline: as §1
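Wherever Bliss excess, mean over the matrix is given: after 72 h of two-drug dosing.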

Compound | combination Emax [1] | combination Emax [2] | combination Emax [3] | combination Emax [4] | combination Emax [5] | combination Emax [6] | combination Emax [7] | combination Emax [8] | combination Emax [9] | combination Emax [10] | combination Emax [11] | combination Emax [12] | combination Emax [13] | combination Emax [14] | combination Emax [15] | combination Emax [16] | Bliss excess [17] | Bliss excess [18] | Bliss excess [19] | Bliss excess [20]
CN(CCO)CC[C@H](CSc1ccccc1)Nc1ccc(S(=O)(=O)NC(=O)c2ccc(N3CCC([C@@H](O)c4ccccc4-c4ccc(Cl)cc4)CC3)cc2)cc1S(=O)(=O)C(F)(F)F [AZD4320] + C[C@@H](Nc1cc(F)cc(F)c1)c1cc(C(=O)N(C)C)cc2c(=O)cc(N3CCOCC3)oc12 [AZD8186] (first compound max 1 µM, 7x7, partner max 3 µM) | 0.778 | 0.35 | 0.947 | 0.459 | 0.411 | 0.476 | 0.341 | 0.424 | 0.773 | 0.543 | 0.573 | 0.613 | 0.77 | 0.781 | 0.946 | 0.476 | -0.0196 | -0.014 | -0.0141 | 0.0063
CN(CCO)CC[C@H](CSc1ccccc1)Nc1ccc(S(=O)(=O)NC(=O)c2ccc(N3CCC([C@@H](O)c4ccccc4-c4ccc(Cl)cc4)CC3)cc2)cc1S(=O)(=O)C(F)(F)F [AZD4320] + Cc1cc2ncnn2cc1Nc1ncc2c(n1)n(C1CCOCC1)c(=O)n2C [AZD7648] (first compound max 1 µM, 7x7, partner max 10 µM) | 0.162 | 0.11 | 0.966 | 0.177 | 0.16 | 0.263 | 0.574 | 0.143 | 0.286 | 0.51 | 0.198 | 0.386 | 0.448 | 0.356 | 0.497 | 0.163 | 0.007 | 0.0633 | -0.0309 | -0.0342
CN(CCO)CC[C@H](CSc1ccccc1)Nc1ccc(S(=O)(=O)NC(=O)c2ccc(N3CCC([C@@H](O)c4ccccc4-c4ccc(Cl)cc4)CC3)cc2)cc1S(=O)(=O)C(F)(F)F [AZD4320] + Cn1cnc2c(F)c(Nc3ccc(Br)cc3Cl)c(C(=O)NOCCO)cc21 [Selumetinib] (first compound max 1 µM, 7x7, partner max 3 µM) | 0.603 | 0.505 | 0.968 | 0.335 | 0.39 | 0.281 | 0.36 | 0.558 | 0.908 | 0.512 | 0.522 | 0.582 | 0.452 | 0.7 | 0.951 | 0.342 | -0.0592 | 0.0295 | 0.032 | 0.0065
COc1nnc2ccc(N3CCC(c4ccc(OCCN5CCN(C)C(=O)[C@H]5C)cc4)CC3)nn12 [AZD5153] + CN(CC[C@H](CSC1=CC=CC=C1)NC2=C(C=C(C=C2)S(=O)(=O)NC(=O)C3=CC=C(C=C3)N4CCC(CC4)[C@H](C5=CC=CC=C5C6=CC=C(C=C6)Cl)O)S(=O)(=O)C(F)(F)F)CCO [AZD4320] (first compound max 1 µM, 7x7, partner max 1 µM) |  |  |  |  |  |  |  |  |  |  |  |  |  |  | 0.74 |  |  |  | 0.036 | 
Cc1nc(Nc2ncc(C(=O)Nc3c(C)cccc3Cl)s2)cc(N2CCN(CCO)CC2)n1 [Dasatinib] + CC(=O)Nc1cccc(-n2c(=O)n(C3CC3)c(=O)c3c(Nc4ccc(I)cc4F)n(C)c(=O)c(C)c32)c1 [Trametinib] (first compound max 2 µM, 7x7, partner max 1 µM) | 0.325 | 0.555 | 0.213 | 0.342 | 0.136 | 0.527 | 0.814 | 0.764 | 0.573 | 0.841 | 0.442 | 0.492 | 0.973 | 0.288 | 0.135 | 0.982 | 0.0027 | -0.0074 | -0.0107 | 
CC(=O)c1c(C)c2cnc(Nc3ccc(N4CCNCC4)cn3)nc2n(C2CCCC2)c1=O [Palbociclib] + CN(CC[C@H](CSC1=CC=CC=C1)NC2=C(C=C(C=C2)S(=O)(=O)NC(=O)C3=CC=C(C=C3)N4CCC(CC4)[C@H](C5=CC=CC=C5C6=CC=C(C=C6)Cl)O)S(=O)(=O)C(F)(F)F)CCO [AZD4320] (first compound max 10 µM, 7x7, partner max 1 µM) |  |  |  |  |  |  |  |  |  |  |  |  |  |  | 0.835 |  |  |  | -0.0622 | 
C[C@@H](c1ccc2nccn2c1)n1nnc2ncc(-c3cnn(C)c3)nc21 [Savolitinib] + CN(CC[C@H](CSC1=CC=CC=C1)NC2=C(C=C(C=C2)S(=O)(=O)NC(=O)C3=CC=C(C=C3)N4CCC(CC4)[C@H](C5=CC=CC=C5C6=CC=C(C=C6)Cl)O)S(=O)(=O)C(F)(F)F)CCO [AZD4320] (first compound max 1 µM, 7x7, partner max 1 µM) |  |  |  |  |  |  |  |  |  |  |  |  |  |  | 0.404 |  |  |  | -0.0642 | 
